The values below come from BindingDB's records for doi:10.1021/acs.jmedchem.0c01312 (Jinan University, 2020).

A short description of the experiment: Inhibition of KRas G12C mutant in human NCI-H1792 cells assessed as antiproliferative activity incubated for 3 days by CellTiter-Glo assay.

As to `C=CC(=O)N1CCN(C(=O)CNc2cc(I)c(Cl)cc2O)CC1`, the EC50 (as a rule, the midpoint of the concentration-response curve) came to 320 nM.
